In publication doi:10.1101/2024.06.16.599186v1 (biorxiv, 2024):
Structures can show the parent of a compound that is named as a salt.

Target: MoGep4 (Pyricularia oryzae, UniProt G4N1T8)
Sequence (G4N1T8 1-216): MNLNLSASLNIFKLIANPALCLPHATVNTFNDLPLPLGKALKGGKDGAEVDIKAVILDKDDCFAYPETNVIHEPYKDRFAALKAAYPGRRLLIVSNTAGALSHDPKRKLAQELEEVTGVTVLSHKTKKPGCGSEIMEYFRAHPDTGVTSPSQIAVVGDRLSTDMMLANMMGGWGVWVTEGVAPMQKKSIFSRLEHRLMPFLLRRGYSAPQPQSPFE

For `CCCCC(CC)CNC(=N)NC(=N)NCCCCCCNC(=N)NC(=N)NCC(CC)CCCC` (stereo not shown) [AXD, alexidine dihydrochloride], the “% inhibition at 4 μM” value was 62.9%.
